The text below walks through data of patent publication US11466034B2, “Compound functioning as bromodomain protein inhibitor, and composition” (Betta Pharmaceuticals Co., Ltd., priority 2017, dated 2022).

The target in one test is BRD4(D1) (Homo sapiens (Human), UniProt O60885). The test is described as follows: Inhibitory activity against BRD4(D1), HTRF assay. Type of test: binding. The procedure: (§1) (+)-JQ1 was used as comparison compound, to evaluated the inhibitory activity of compounds of the invention against BRD4(D1) and BRD4(D2) in vitro.
(§2) The assays of BRD4 (D1) and BRD4 (D2) were conducted in a 384-well polystyrene plate. The test compounds were first serially diluted in DMSO and the test compound/DMSO were transferred to 384-well plates. The final concentration of DMSO in the assay was 0.1%. 2 volumes of protein/peptide mixture were added into 384-well plates, then 2 volumes of assay mixture were added, and shake for 30 s. The plate was incubated at room temperature for 2 h. Then the HTRF signal on EnVision was readed.
(§3) Use equation (1) to fit the date in Excel to obtain the value of the inhibition rate. Inhibition rate (%)=(maximum value−signal value)/(maximum value−minimum value)*100 Equation(1):
(§4) IC50 determination was performed by fitting the data using GraphPad Prism 5.0 software and equation (2). Y=bottom+(Top−bottom)/(1+10^((Log IC50−X)*HillSlope)); Equation(2): wherein, Y represents the percentage of inhibition (%); X represents the concentration of test compounds.
(§5) The IC50 data of the examples were provided in the following table, wherein, A stands for IC50<100 nM; B stands for IC50 is 100-300 nM; C stands for IC50>300 nM.

For another test, the target named is BRD4(D2) (Homo sapiens (Human), UniProt O60885). The test can be described thus: Inhibitory activity against BRD4(D2), HTRF assay. Type of test: binding. The procedure: as §1, §2, §3, §4, §5
On the technique in general: Time-resolved FRET reads energy transfer from a long-lived donor to a nearby acceptor.

Each structure is given as a SMILES string. Bounds are passed on as bounds.

The term IC50 denotes the midpoint of a concentration-inhibition curve. The low end stands for greater potency in that assay, the high end for weaker potency in that assay. Consider `Cc1nc2ncc(-c3cn(C)c(=O)c4[nH]ccc34)nc2n1Cc1ccc(S(C)(=O)=O)cc1` [Example 33, 6-methyl-4-(2-methyl-1-(4-(methylsulfonyl)benzyl)-1H-imidazo[4,5-b]pyrazin-6-yl)-1H-pyrrolo[2,3-c]pyridin-7(6H)-one], for which the half-inhibitory concentration (IC50) against BRD4(D1) (class symbols) and against BRD4(D2) (class symbols) was below 100 nM each time.

With `Cn1cc(-c2cnc3[nH]c(=O)n(Cc4ccc(Cl)cc4)c3c2)c2cc[nH]c2c1=O` [Example 34, 1-(4-chlorobenzyl)-6-(6-methyl-7-oxo-6,7-dihydro-1H-pyrrolo[2,3-c]pyridin-4-yl)-1,3-dihydro-2H-imidazo[4,5-b]pyridin-2-one], the IC50 was found to be 107 nM on BRD4(D1) (numeric values) and 31 nM against BRD4(D2) (numeric values).

Consider `Cc1[nH]c2ncc(-c3cn(C)c(=O)c4[nH]ccc34)cc2c1C(C)c1c(Cl)ccc(F)c1Cl` (stereo not shown) [Example 35, 4-(3-(1-(2,6-dichloro-3-fluorophenyl)ethyl)-2-methyl-1H-pyrrolo[2,3-b]pyridin-5-yl)-6-methyl-1,6-dihydro-7H-pyrrolo[2,3-c]pyridin-7-one], for which the IC50 turned out to be 45.1 nM on BRD4(D1) (numeric values) and 5.3 nM against BRD4(D2) (numeric values).

With `Cn1cc(-c2cnc3ccn(Cc4c(Cl)cccc4Cl)c3c2)c2cc[nH]c2c1=O` [Example 36, 4-(1-(2,6-dichlorobenzyl)-1H-pyrrolo[3,2-b]pyridin-6-yl)-6-methyl-1,6-dihydro-7H-pyrrolo[2,3-c]pyridin-7-one], the concentration for half-maximal inhibition (IC50) is 15 nM against BRD4(D1) (numeric values) and 2.9 nM on BRD4(D2) (numeric values).

Turning to `Cn1cc(-c2cnc3ncnc(Nc4ccc(Cl)cc4)c3c2)c2cc[nH]c2c1=O` [Example 37, 4-(4-((4-chlorophenyl)amino)pyrido[2,3-d]pyrimidin-6-yl)-6-methyl-1,6-dihydro-7H-pyrrolo[2,3-c]pyridin-7-one], the IC50 at BRD4(D1) (class symbols) and against BRD4(D2) (class symbols) was above 300 nM each time.

For the compound `Cc1cc2ncc(-c3cn(C)c(=O)c4[nH]ccc34)cc2n1Cc1c(Cl)cccc1Cl` [Example 38, 4-(1-(2,6-dichlorobenzyl)-2-methyl-1H-pyrrolo[3,2-b]pyridin-6-yl)-6-methyl-1,6-dihydro-7H-pyrrolo[2,3-c]pyridin-7-one], the IC50 at BRD4(D1) (numeric values) was 7.3 nM; against BRD4(D2) (numeric values) it was 2.2 nM.

As for `Cn1cc(-c2ccc3ccn(S(=O)(=O)c4ccc(Cl)cc4)c3n2)c2cc[nH]c2c1=O` [Example 40, 4-(1-((4-chlorophenyl)sulfonyl)-1H-pyrrolo[2,3-b]pyridin-6-yl)-6-methyl-1,6-dihydro-7H-pyrrolo[2,3-c]pyridin-7-one], the IC50 at BRD4(D1) (numeric values) turned out to be 10.5 nM; on BRD4(D2) (numeric values), 2.5 nM.

For `CCS(=O)(=O)Nc1cc(-c2cn(C)c(=O)c3[nH]ccc23)cc2c1nc(C)n2Cc1ccc(C(F)(F)F)cc1` [Example 42, N-(2-methyl-6-(6-methyl-7-oxo-6,7-dihydro-1H-pyrrolo[2,3-c]pyridin-4-yl)-1-(4-(trifluoromethyl)benzyl)-1H-benzo[d]imidazol-4-yl)ethanesulfonamide], the half-inhibitory concentration (IC50) against BRD4(D1) (class symbols) and against BRD4(D2) (class symbols) was below 100 nM each time.

Regarding `CCS(=O)(=O)Nc1cc(-c2cn(C)c(=O)c3[nH]ccc23)cc2c1nc(C)n2Cc1ccc(OC)cc1` [Example 43, N-(1-(4-methoxybenzyl)-2-methyl-6-(6-methyl-7-oxo-6,7-dihydro-H-pyrrolo[2,3-c]pyridin-4-yl)-1H-benzo[d]imidazol-4-yl)ethanesulfonamide], the IC50 on BRD4(D1) (class symbols) and on BRD4(D2) (class symbols) was below 100 nM in each case.

For `CCS(=O)(=O)Nc1cc(-c2cn(C)c(=O)c3[nH]ccc23)cc2c1nc(C)n2C(C)c1ccc(Cl)cc1` (stereo not shown) [Example 44, N-(1-(1-(4-chlorophenyl)ethyl)-2-methyl-6-(6-methyl-7-oxo-6,7-dihydro-H-pyrrolo[2,3-c]pyridin-4-yl)-1H-benzo[d]imidazol-4-yl)ethanesulfonamide], the 50% inhibitory concentration (IC50) against BRD4(D1) (class symbols) and at BRD4(D2) (class symbols) was below 100 nM in each case.

Regarding `CCS(=O)(=O)Nc1cc(-c2cn(C)c(=O)c3[nH]ccc23)cc2c1nc(C)n2Cc1ccccc1` [Example 45, N-(1-benzyl-2-methyl-6-(6-methyl-7-oxo-6,7-dihydro-1H-pyrrolo[2,3-c]pyridin-4-yl)-1H-benzo[d]imidazol-4-yl)ethanesulfonamide], the IC50 at BRD4(D1) (class symbols) and on BRD4(D2) (class symbols) was below 100 nM throughout.

On to `CCS(=O)(=O)Nc1cc(-c2cn(C)c(=O)c3[nH]ccc23)cc2c1nc(C)n2Cc1cccc(C(F)(F)F)c1` [Example 46, N-(2-methyl-6-(6-methyl-7-oxo-6,7-dihydro-1H-pyrrolo[2,3-c]pyridin-4-yl)-1-(3-(trifluoromethyl)benzyl)-1H-benzo[d]imidazol-4-yl)ethanesulfonamide], for which the IC50 against BRD4(D1) (class symbols) and against BRD4(D2) (class symbols) was below 100 nM in each case.

As for `CCS(=O)(=O)Nc1cc(-c2cn(C)c(=O)c3[nH]ccc23)cc2c1nc(C)n2Cc1cc(C(F)(F)F)ccc1F` [Example 47, N-(2-methyl-6-(6-methyl-7-oxo-6,7-dihydro-1H-pyrrolo[2,3-c]pyridin-4-yl)-1-(2-fluoro-5-(trifluoromethyl)benzyl)-1H-benzo[d]imidazol-4-yl)ethanesulfonamide], the IC50 at BRD4(D1) (class symbols) and against BRD4(D2) (class symbols) was below 100 nM throughout.

In the case of `CCS(=O)(=O)Nc1cc(-c2cn(C)c(=O)c3[nH]ccc23)cc2c1nc(C)n2Cc1cc(F)cc(C(F)(F)F)c1` [Example 48, N-(2-methyl-6-(6-methyl-7-oxo-6,7-dihydro-1H-pyrrolo[2,3-c]pyridin-4-yl)-1-(3-fluoro-5-(trifluoromethyl)benzyl)-1H-benzo[d]imidazol-4-yl)ethanesulfonamide], the IC50 at BRD4(D1) (class symbols) and on BRD4(D2) (class symbols) was below 100 nM throughout.

In the case of `CCS(=O)(=O)Nc1cc(-c2cn(C)c(=O)c3[nH]ccc23)cc2c1nc(C)n2Cc1ccc(Cl)cc1F` [Example 49, N-(2-methyl-6-(6-methyl-7-oxo-6,7-dihydro-1H-pyrrolo[2,3-c]pyridin-4-yl)-1-(2-fluoro-4-chlorobenzyl)-1H-benzo[d]imidazol-4-yl)ethanesulfonamide], the IC50 at BRD4(D1) (class symbols) and against BRD4(D2) (class symbols) was below 100 nM throughout.

In the case of `CCS(=O)(=O)Nc1cc(-c2cn(C)c(=O)c3[nH]ccc23)cc2c1nc(C)n2Cc1ccc(Cl)c(C(F)(F)F)c1` [Example 50, N-(2-methyl-6-(6-methyl-7-oxo-6,7-dihydro-1H-pyrrolo[2,3-c]pyridin-4-yl)-1-(3-(trifluoromethyl)-4chlorobenzyl)-1H-benzo[d]imidazol-4-yl)ethanesulfonamide], the half-inhibitory concentration (IC50) at BRD4(D1) (class symbols) and on BRD4(D2) (class symbols) was below 100 nM in each case.

In the case of `CCS(=O)(=O)Nc1cc(-c2cn(C)c(=O)c3[nH]ccc23)cc2c1nc(C)n2Cc1ccc(C(F)(F)F)c(F)c1` [Example 51, N-(2-methyl-6-(6-methyl-7-oxo-6,7-dihydro-1H-pyrrolo[2,3-c]pyridin-4-yl)-1-(3-fluoro-4-(trifluoromethyl)benzyl)-1H-benzo[d]imidazol-4-yl)ethanesulfonamide], the IC50 against BRD4(D1) (class symbols) and at BRD4(D2) (class symbols) was below 100 nM in each case.

Take `CCS(=O)(=O)Nc1cc(-c2cn(C)c(=O)c3[nH]ccc23)cc2c1nc(C)n2Cc1ccc(C(F)(F)F)c(Cl)c1` [Example 52, N-(2-methyl-6-(6-methyl-7-oxo-6,7-dihydro-1H-pyrrolo[2,3-c]pyridin-4-yl)-1-(3-chloro-4-(trifluoromethyl)benzyl)-1H-benzo[d]imidazol-4-yl)ethanesulfonamide]: the 50% inhibitory concentration (IC50) at BRD4(D1) (class symbols) and on BRD4(D2) (class symbols) was below 100 nM in each case.

Turning to `CCS(=O)(=O)Nc1cc(-c2cn(C)c(=O)c3[nH]ccc23)cc2c1nc(C)n2Cc1cccc(Cl)c1` [Example 53, N-(2-methyl-6-(6-methyl-7-oxo-6,7-dihydro-1H-pyrrolo[2,3-c]pyridin-4-yl)-1-(3-chlorobenzyl)-1H-benzo[d]imidazol-4-yl)ethanesulfonamide], the concentration for half-maximal inhibition (IC50) against BRD4(D1) (class symbols) and against BRD4(D2) (class symbols) was below 100 nM throughout.

As for `CCS(=O)(=O)Nc1cc(-c2cn(C)c(=O)c3[nH]ccc23)cc2c1nc(C)n2Cc1ccc(Br)cc1` [Example 55, N-(2-methyl-6-(6-methyl-7-oxo-6,7-dihydro-1H-pyrrolo[2,3-c]pyridin-4-yl)-1-(4-bromobenzyl)-1H-benzo[d]imidazol-4-yl)ethanesulfonamide], the IC50 against BRD4(D1) (class symbols) and on BRD4(D2) (class symbols) was below 100 nM throughout.

On to `CCS(=O)(=O)Nc1cc(-c2cn(C)c(=O)c3[nH]ccc23)cc2c1nc(C)n2Cc1ccc(S(C)(=O)=O)cc1` [Example 56, N-(2-methyl-6-(6-methyl-7-oxo-6,7-dihydro-1H-pyrrolo[2,3-c]pyridin-4-yl)-1-(4-(methylsulfonyl)benzyl)-1H-benzo[d]imidazol-4-yl)ethanesulfonamide], for which the IC50 against BRD4(D1) (class symbols) and on BRD4(D2) (class symbols) was below 100 nM throughout.

Turning to `CCS(=O)(=O)Nc1cc(-c2cn(C)c(=O)c3[nH]ccc23)cc2c1nc(C)n2Cc1ccc(F)cc1Cl` [Example 57, N-(1-(2-chloro-4-fluorobenzyl)-2-methyl-6-(6-methyl-7-oxo-6,7-dihydro-1H-pyrrolo[2,3-c]pyridin-4-yl)-1H-benzo[d]imidazol-4-yl)ethanesulfonamide], the IC50 at BRD4(D1) (class symbols) and on BRD4(D2) (class symbols) was below 100 nM each time.

With `CCS(=O)(=O)Nc1cc(-c2cn(C)c(=O)c3[nH]ccc23)nc2c1ncn2C(C)c1ccc(Cl)cc1` (stereo not shown) [Example 60, N-(3-(1-(4-chlorophenyl)ethyl)-5-(6-methyl-7-oxo-6,7-dihydro-1H-pyrrolo[2,3-c]pyridin-4-yl)-3H-imidazo[4,5-b]pyridin-7-yl)ethanesulfonamide], the concentration for half-maximal inhibition (IC50) on BRD4(D1) (class symbols) and against BRD4(D2) (class symbols) was 100 to 300 nM in each case.
